{"source": "PubChem BioAssay (NCI)", "note": "“And” between values parts separate entries of the source, which are not always exact repeats. Identical values can stand only once.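 Dose response: 5 concentrations. Exposure: 48 h. Format: 96-well plates. Endpoint: linear interpolation; highest concentration if not reached. Here, GI50 denotes the concentration required for 50% inhibition of growth. TGI is the concentration that stops growth completely.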", "data": [{"system": "HOP-92 NSCLC", "test": "NCI-60 cell line screen, 48 h", "values": [{"compound": "CC(C)CCN1c2nc(Nc3cc(F)c(O)c(F)c3)ncc2N(C)C(=O)C1C", "note": "(stereo not given)", "GI50": "0.591 µM", "TGI": "14.9 µM"}, {"compound": "NC(=O)NC1C(c2ccccc2)=C1c1ccccc1", "TGI": "38.1 µM"}, {"compound": "O=C(CNc1ccc(Cl)cc1)Nc1ccc(-c2nc3ccccc3s2)cc1", "GI50": "1.91 µM", "TGI": "5.17 µM"}, {"compound": "CCCCCCCCCCCCOC1C(C(COC2OC(C3COC(C)(C)O3)C3OC(C)(C)OC23)NC(=O)Nc2ccc(C(=O)O)cc2)OC2OC(C)(C)OC21", "note": "(stereo not given)", "GI50": "2.55 µM", "TGI": "8.04 µM"}, {"compound": "CCN(CC)CCC(CNc1ccnc2cc(Cl)ccc12)c1ccc(OC)cc1", "note": "(stereo not given)", "GI50": "2.42 µM and 2.12 µM", "TGI": "14.3 µM and 11.5 µM"}, {"compound": "COc1ccc(/C=C(/C(=O)N2CCN(c3ccccc3)CC2)c2cc(OC)c(OC)c(OC)c2)cc1O", "GI50": "22 µM", "TGI": "> 100 µM"}, {"compound": "CCn1c(-c2nonc2N)nc2c(C#CC(C)(C)O)nc(OC[C@H](N)c3ccccc3)cc21", "GI50": "2.37 µM", "TGI": "7.38 µM"}, {"compound": "O=C1/C(=C/c2ccc(Br)cc2)COc2ccc(O)c(O)c21", "GI50": "1.26 µM", "TGI": "5.49 µM"}, {"compound": "CCCCCCNC(=O)c1cc(NCc2cc(O)ccc2O)ccc1O", "GI50": "1.66 µM", "TGI": "5.03 µM"}, {"compound": "CC(CCC=O)CCOCc1ccccc1", "note": "(stereo not given)", "TGI": "> 100 µM"}, {"compound": "O=C(Nc1nc2ccc(C(F)(F)F)cc2s1)c1cc(Cl)ccc1O", "GI50": "0.116 µM", "TGI": "0.489 µM"}, {"compound": "COc1ccc(-n2cc(-c3cc(OC)c(OC)c(OC)c3)c(C(=O)C(F)(F)F)c2C)cc1", "GI50": "2.39 µM", "TGI": "21.5 µM"}, {"compound": "COc1cc(C2CC(c3cccc(Br)c3)=NN2C(C)=O)cc(OC)c1OC", "note": "(stereo not given)", "GI50": "17 µM", "TGI": "83.8 µM"}]}, {"system": "HS 578T breast", "test": "NCI-60 cell line screen, 48 h", "values": [{"compound": "CC(C)CCN1c2nc(Nc3cc(F)c(O)c(F)c3)ncc2N(C)C(=O)C1C", "note": "(stereo not given)", "GI50": "3.22 µM", "TGI": "32.1 µM"}, {"compound": "NC(=O)NC1C(c2ccccc2)=C1c1ccccc1", "TGI": "> 100 µM"}, {"compound": "O=C(CNc1ccc(Cl)cc1)Nc1ccc(-c2nc3ccccc3s2)cc1", "GI50": "7.87 µM", "TGI": "47.6 µM"}, {"compound": "CCCCCCCCCCCCOC1C(C(COC2OC(C3COC(C)(C)O3)C3OC(C)(C)OC23)NC(=O)Nc2ccc(C(=O)O)cc2)OC2OC(C)(C)OC21", "note": "(stereo not given)", "GI50": "3.46 µM", "TGI": "13.2 µM"}, {"compound": "CCN(CC)CCC(CNc1ccnc2cc(Cl)ccc12)c1ccc(OC)cc1", "note": "(stereo not given)", "GI50": "5.51 µM and 7.53 µM", "TGI": "23.4 µM and 34.3 µM"}, {"compound": "COc1ccc(/C=C(/C(=O)N2CCN(c3ccccc3)CC2)c2cc(OC)c(OC)c(OC)c2)cc1O", "GI50": "0.712 µM", "TGI": "> 100 µM"}, {"compound": "CCn1c(-c2nonc2N)nc2c(C#CC(C)(C)O)nc(OC[C@H](N)c3ccccc3)cc21", "GI50": "1.8 µM", "TGI": "7.28 µM"}, {"compound": "O=C1/C(=C/c2ccc(Br)cc2)COc2ccc(O)c(O)c21", "GI50": "1.54 µM", "TGI": "6.77 µM"}, {"compound": "CCCCCCNC(=O)c1cc(NCc2cc(O)ccc2O)ccc1O", "GI50": "15.1 µM", "TGI": "> 100 µM"}, {"compound": "CC(CCC=O)CCOCc1ccccc1", "note": "(stereo not given)", "TGI": "> 100 µM"}, {"compound": "O=C(Nc1nc2ccc(C(F)(F)F)cc2s1)c1cc(Cl)ccc1O", "GI50": "1.23 µM", "TGI": "> 100 µM"}, {"compound": "COc1ccc(-n2cc(-c3cc(OC)c(OC)c(OC)c3)c(C(=O)C(F)(F)F)c2C)cc1", "GI50": "53.1 µM", "TGI": "> 100 µM"}, {"compound": "COc1cc(C2CC(c3cccc(Br)c3)=NN2C(C)=O)cc(OC)c1OC", "note": "(stereo not given)", "GI50": "0.397 µM", "TGI": "> 100 µM"}]}, {"system": "KM12 colon", "test": "NCI-60 cell line screen, 48 h", "values": [{"compound": "CC(C)CCN1c2nc(Nc3cc(F)c(O)c(F)c3)ncc2N(C)C(=O)C1C", "note": "(stereo not given)", "GI50": "2.92 µM", "TGI": "14.7 µM"}, {"compound": "NC(=O)NC1C(c2ccccc2)=C1c1ccccc1", "TGI": "62.2 µM"}, {"compound": "O=C(CNc1ccc(Cl)cc1)Nc1ccc(-c2nc3ccccc3s2)cc1", "GI50": "5.39 µM", "TGI": "16.5 µM"}, {"compound": "CCCCCCCCCCCCOC1C(C(COC2OC(C3COC(C)(C)O3)C3OC(C)(C)OC23)NC(=O)Nc2ccc(C(=O)O)cc2)OC2OC(C)(C)OC21", "note": "(stereo not given)", "GI50": "2.22 µM", "TGI": "4.36 µM"}, {"compound": "CCN(CC)CCC(CNc1ccnc2cc(Cl)ccc12)c1ccc(OC)cc1", "note": "(stereo not given)", "GI50": "12.8 µM and 5.62 µM", "TGI": "28.6 µM and 21.5 µM"}, {"compound": "COc1ccc(/C=C(/C(=O)N2CCN(c3ccccc3)CC2)c2cc(OC)c(OC)c(OC)c2)cc1O", "GI50": "0.414 µM", "TGI": "> 100 µM"}, {"compound": "CCn1c(-c2nonc2N)nc2c(C#CC(C)(C)O)nc(OC[C@H](N)c3ccccc3)cc21", "GI50": "2.99 µM", "TGI": "6.39 µM"}, {"compound": "O=C1/C(=C/c2ccc(Br)cc2)COc2ccc(O)c(O)c21", "GI50": "1.11 µM", "TGI": "3.35 µM"}, {"compound": "CCCCCCNC(=O)c1cc(NCc2cc(O)ccc2O)ccc1O", "GI50": "11.5 µM", "TGI": "29 µM"}, {"compound": "CC(CCC=O)CCOCc1ccccc1", "note": "(stereo not given)", "TGI": "> 100 µM"}, {"compound": "O=C(Nc1nc2ccc(C(F)(F)F)cc2s1)c1cc(Cl)ccc1O", "GI50": "0.611 µM", "TGI": "22 µM"}, {"compound": "COc1ccc(-n2cc(-c3cc(OC)c(OC)c(OC)c3)c(C(=O)C(F)(F)F)c2C)cc1", "GI50": "32.6 µM", "TGI": "> 100 µM"}, {"compound": "COc1cc(C2CC(c3cccc(Br)c3)=NN2C(C)=O)cc(OC)c1OC", "note": "(stereo not given)", "GI50": "0.247 µM", "TGI": "18 µM"}]}, {"system": "TK-10 renal", "test": "NCI-60 cell line screen, 48 h", "values": [{"compound": "CC(C)CCN1c2nc(Nc3cc(F)c(O)c(F)c3)ncc2N(C)C(=O)C1C", "note": "(stereo not given)", "GI50": "4.34 µM", "TGI": "> 87.2 µM"}, {"compound": "NC(=O)NC1C(c2ccccc2)=C1c1ccccc1", "TGI": "53.7 µM"}, {"compound": "O=C(CNc1ccc(Cl)cc1)Nc1ccc(-c2nc3ccccc3s2)cc1", "GI50": "5.98 µM", "TGI": "13.7 µM"}, {"compound": "CCCCCCCCCCCCOC1C(C(COC2OC(C3COC(C)(C)O3)C3OC(C)(C)OC23)NC(=O)Nc2ccc(C(=O)O)cc2)OC2OC(C)(C)OC21", "note": "(stereo not given)", "GI50": "4.13 µM", "TGI": "14.4 µM"}, {"compound": "CCN(CC)CCC(CNc1ccnc2cc(Cl)ccc12)c1ccc(OC)cc1", "note": "(stereo not given)", "GI50": "3.97 µM and 1.99 µM", "TGI": "14.2 µM and 5.15 µM"}, {"compound": "COc1ccc(/C=C(/C(=O)N2CCN(c3ccccc3)CC2)c2cc(OC)c(OC)c(OC)c2)cc1O", "GI50": "23.4 µM", "TGI": "> 100 µM"}, {"compound": "CCn1c(-c2nonc2N)nc2c(C#CC(C)(C)O)nc(OC[C@H](N)c3ccccc3)cc21", "GI50": "2.69 µM", "TGI": "6.37 µM"}, {"compound": "O=C1/C(=C/c2ccc(Br)cc2)COc2ccc(O)c(O)c21", "GI50": "1.7 µM", "TGI": "3.2 µM"}, {"compound": "CCCCCCNC(=O)c1cc(NCc2cc(O)ccc2O)ccc1O", "GI50": "10.7 µM", "TGI": "23.1 µM"}, {"compound": "CC(CCC=O)CCOCc1ccccc1", "note": "(stereo not given)", "TGI": "> 100 µM"}, {"compound": "O=C(Nc1nc2ccc(C(F)(F)F)cc2s1)c1cc(Cl)ccc1O", "GI50": "0.76 µM", "TGI": "34 µM"}, {"compound": "COc1ccc(-n2cc(-c3cc(OC)c(OC)c(OC)c3)c(C(=O)C(F)(F)F)c2C)cc1", "GI50": "35.7 µM", "TGI": "> 100 µM"}, {"compound": "COc1cc(C2CC(c3cccc(Br)c3)=NN2C(C)=O)cc(OC)c1OC", "note": "(stereo not given)", "GI50": "16.5 µM", "TGI": "72.2 µM"}]}, {"system": "UACC-257 melanoma", "test": "NCI-60 cell line screen, 48 h", "values": [{"compound": "CC(C)CCN1c2nc(Nc3cc(F)c(O)c(F)c3)ncc2N(C)C(=O)C1C", "note": "(stereo not given)", "GI50": "17.1 µM", "TGI": "> 88.2 µM"}, {"compound": "NC(=O)NC1C(c2ccccc2)=C1c1ccccc1", "TGI": "38.4 µM"}, {"compound": "O=C(CNc1ccc(Cl)cc1)Nc1ccc(-c2nc3ccccc3s2)cc1", "GI50": "7.7 µM", "TGI": "21.6 µM"}, {"compound": "CCCCCCCCCCCCOC1C(C(COC2OC(C3COC(C)(C)O3)C3OC(C)(C)OC23)NC(=O)Nc2ccc(C(=O)O)cc2)OC2OC(C)(C)OC21", "note": "(stereo not given)", "GI50": "2.38 µM", "TGI": "5.79 µM"}, {"compound": "CCN(CC)CCC(CNc1ccnc2cc(Cl)ccc12)c1ccc(OC)cc1", "note": "(stereo not given)", "GI50": "2.19 µM and 1.72 µM", "TGI": "3.96 µM and 3.48 µM"}, {"compound": "COc1ccc(/C=C(/C(=O)N2CCN(c3ccccc3)CC2)c2cc(OC)c(OC)c(OC)c2)cc1O", "GI50": "30.6 µM", "TGI": "> 100 µM"}, {"compound": "CCn1c(-c2nonc2N)nc2c(C#CC(C)(C)O)nc(OC[C@H](N)c3ccccc3)cc21", "GI50": "5.18 µM", "TGI": "9.43 µM"}, {"compound": "O=C1/C(=C/c2ccc(Br)cc2)COc2ccc(O)c(O)c21", "GI50": "1.71 µM", "TGI": "6.78 µM"}, {"compound": "CCCCCCNC(=O)c1cc(NCc2cc(O)ccc2O)ccc1O", "GI50": "14.1 µM", "TGI": "30.4 µM"}, {"compound": "CC(CCC=O)CCOCc1ccccc1", "note": "(stereo not given)", "TGI": "> 100 µM"}, {"compound": "O=C(Nc1nc2ccc(C(F)(F)F)cc2s1)c1cc(Cl)ccc1O", "GI50": "0.646 µM", "TGI": "5.53 µM"}, {"compound": "COc1ccc(-n2cc(-c3cc(OC)c(OC)c(OC)c3)c(C(=O)C(F)(F)F)c2C)cc1", "GI50": "15.7 µM", "TGI": "> 100 µM"}, {"compound": "COc1cc(C2CC(c3cccc(Br)c3)=NN2C(C)=O)cc(OC)c1OC", "note": "(stereo not given)", "GI50": "25.3 µM", "TGI": "> 84.1 µM"}]}]}
